# Data from EP0335662B1, “Peptides” (BRITISH TECHNOLOGY GROUP LIMITED, priority 1988, dated 1989).
# Where “and” joins values, the source holds several entries; their conditions need not be identical. Equal values may be shown once. Read-outs that look alike come from different tables or passages of the source. Non-standard residues stand in square brackets, D forms with d. Residues, ends and D or L forms follow the SMILES beside them.
# Key:
# [1] = system: hyperalgesia evoked by IL-1β; experiment: Modified Randall-Sellito rat paw pressure test: hyperalgesia evoked by IL-1β; format: in vivo, rats; details: 100 »g ipl, 30 minutes before 0.05U IL-1β ipl or ip
# Description: (§1) Hyperalgesia was evaluated by the application of a constant pressure of 20 mmHg to the hind paws of rats (Wistar strain, male, weight 135 - 170g) which was discontinued when animals presented a characteristic freezing reaction (reaction time). The intensity of hyperalgesia was quantified as the variation of the reaction time (Δ reaction time, sec) obtained by subtracting the value measured 1,2,3 or 4h after administration of the hyperalgesic agent from the pre-injection control reaction time (zero time). The experimenter was unaware of the group treatments.
# (§2) There were 5 animals per treatment group. […]
# [2] = system: human blood mononuclear cells (MNC); experiment: PGE₂ release by blood mononuclear cells, radioimmunoassay; format: cell-based; details: in words
# Description: The effect of K(D)PT and indomethacin on PGE₂ release by human blood mononuclear cells (MNC) was investigated. The MNC were isolated from buffy coat residues by density gradient centrifugation (Ficoll-hypaque, Sigma) and resuspended in RPMI 1640 culture medium (Gibco) + 2% inactivated foetal calf serum (Imperial Laboratories). […] Values are means of quadruplicates ± s.e.m.'s. PGE₂ concentrations were measured by radioimmunoassay (NEN Research Products).
# [3] = system: gastric lesions; experiment: Gastric lesions after treatment; format: in vivo, mice; details: 32 mg/kg
# [4] = system: hyperalgesia evoked by IL-1β; details: cited from earlier work
# [5] = system: hyperalgesia evoked by DbcAMP; experiment: Rat paw pressure test: hyperalgesia evoked by DbcAMP; parameters: species or system rats; details: in vivo
# Description: as §1
# The effect of the tripeptides KPV and K(D)PV on hyperalgesia evoked in rats by DbcAMP was studied. Treatments were given ip, 1h before DbcAMP was injected into the paw (ipl). There were 5 animals per treatment group. Delta reaction times were measured 3h after DbcAMP. […] The control was DbcAMP (100»g/paw). […]
# [6] = system: hyperalgesia evoked by PGE₂; experiment: Rat paw pressure test: hyperalgesia evoked by PGE₂; parameters: species or system rats; details: in vivo
# Description: as §1, §2
# [7] = system: hot plate (55°C) reaction time; experiment: Standard hot plate (55°C) test; details: in vivo
# Description: A standard hot plate (55°C) test was carried out. […]
# [8] = system: mice; details: administered to mice; Goerne et al 1982; cited from earlier work
# [9] = system: hot-plate test; details: injected into the brain; Herman et al 1985; cited from earlier work
compound,measurement,setting,value
"COc1ccc2c(c1)c(CC(=O)O)c(C)n2C(=O)c1ccc(Cl)cc1 [Indomethacin, indomethacin]","effect of pretreatment on hyperalgesic response, contralateral paws (CL)",[1],no effect
same,"effect of pretreatment on hyperalgesic response, treated paws (I)",[1],markedly attenuated
same,effect on production of PGE₂ by MNC,[2],abolished PGE₂ production
"C[C@@H](O)[C@H](NC(=O)[C@H]1CCCN1C(=O)[C@@H](N)CCCCN)C(=O)O [K(D)PT, Lys-D-Pro-Thr] (H-Lys-[dP]-Thr-OH)",gastric lesions,[3],No lesions were observed
"CN1CC[C@]23c4c5ccc(O)c4O[C@H]2[C@@H](O)C=C[C@H]3[C@H]1C5 [Morphine, morphine]",antagonism of on-going hyperalgesia,"[4]; rat, in vivo",able to antagonise on-going hyperalgesia
same,antagonism of hyperalgesia evoked by DbcAMP,[5],effective antagonist
same,change of delta reaction time vs control (= 100%),[5],-64.0%
same,delta reaction time,[5],6.2 ± 0.4 s
same,change of delta reaction time vs control (= 100%),[6],-63.7%
same,delta reaction time,[6],6.1 ± 0.8 s
same,"reaction time difference, hot plate (55°C)",[7],3.52 s and 5.55 s
Cc1c(N(C)CS(=O)(=O)O)c(=O)n(-c2ccccc2)n1C [dipyrone],antagonism of on-going hyperalgesia,"[4]; general statement on known analgesics, no data",able to antagonise on-going hyperalgesia
Arg-Pro,hyperalgesia on administration,[8],evoke hyperalgesia
Lys-Pro,hyperalgesia on administration,[8],evoke hyperalgesia
same,antinociceptive action in a hot-plate test,[9],elicited antinociceptive action
